Assay results taken from PMC11198769, “Enhancement of transcription efficiency by TAR-Tat system increases the functional expression of human olfactory receptors” (PLOS ONE, 2024).

Columns and labels:
Test in all cases: Comprehensive analysis (screening) of hORs against n-hexanal
Format in all cases: cell-based
OR10C1 = target: T1, OR10C1 (Homo sapiens, UniProt Q96KK4); conditions: OR10C1, 500 μM n-hexanal, with the TAR-Tat system (hOR/pHEK), n = 1
T1 construct: Lucy tag (N); expressed in transfected cells; host or cells: Flp-In T-REx-293 cells stably expressing RTP1S, Gαolf and Ric8-b
T1 sequence (Q96KK4 1-312): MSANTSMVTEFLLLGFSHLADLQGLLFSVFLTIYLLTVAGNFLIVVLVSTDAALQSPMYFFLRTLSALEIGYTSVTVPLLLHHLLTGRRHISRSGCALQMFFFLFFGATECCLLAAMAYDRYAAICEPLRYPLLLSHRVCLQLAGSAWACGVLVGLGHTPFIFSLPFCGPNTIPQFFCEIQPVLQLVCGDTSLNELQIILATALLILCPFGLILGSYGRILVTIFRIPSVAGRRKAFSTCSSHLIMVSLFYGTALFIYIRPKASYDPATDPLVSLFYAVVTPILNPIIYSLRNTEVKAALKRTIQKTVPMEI
Procedure: (§1) Transfection was performed as described in the “hOR assay,” but 12.5 ng of 379 hOR plasmids (hOR/pBApo and hOR/pHEK) was transfected with the 12.5 ng pGlosensor^TM-22F cAMP biosensor plasmid (Promega) in 384 plates per well. After loading the GloSensor cAMP substrate and preincubation, the assay buffer was added (30 μL/well). After 10 min of equilibration, luminescence was measured (L0). Then, 50 mM n-hexanal, which was diluted with 10% DMSO/assay buffer, was added (4.7 μL/well). After 9 min, luminescence was measured (L9min). All the L9min values were subtracted by the L0 value (ΔL).

OR2B3 = target: T2, OR2B3 (Homo sapiens, UniProt O76000); conditions: OR2B3, 500 μM n-hexanal, with the TAR-Tat system (hOR/pHEK), n = 1
T2 construct: Lucy tag (N); FLAG (N); Rho tag (N); expressed in transfected cells; host or cells: Flp-In T-REx-293 cells stably expressing RTP1S, Gαolf and Ric8-b
T2 sequence (O76000 1-313): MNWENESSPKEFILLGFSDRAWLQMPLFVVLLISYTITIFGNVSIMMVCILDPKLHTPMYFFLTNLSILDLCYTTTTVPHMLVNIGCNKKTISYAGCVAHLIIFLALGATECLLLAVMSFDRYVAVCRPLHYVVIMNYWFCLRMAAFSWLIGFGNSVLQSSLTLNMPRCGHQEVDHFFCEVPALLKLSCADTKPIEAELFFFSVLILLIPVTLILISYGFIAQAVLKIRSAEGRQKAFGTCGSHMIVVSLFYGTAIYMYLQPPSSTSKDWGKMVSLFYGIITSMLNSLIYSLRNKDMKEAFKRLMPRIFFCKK
Procedure: as §1

OR2J3 = target: T3, OR2J3 (Homo sapiens, UniProt O76001); conditions: OR2J3, 500 μM n-hexanal, n = 1
T3 construct: Lucy tag (N); FLAG (N); Rho tag (N); expressed in transfected cells; host or cells: Flp-In T-REx-293 cells stably expressing RTP1S, Gαolf and Ric8-b
T3 sequence (O76001 1-311): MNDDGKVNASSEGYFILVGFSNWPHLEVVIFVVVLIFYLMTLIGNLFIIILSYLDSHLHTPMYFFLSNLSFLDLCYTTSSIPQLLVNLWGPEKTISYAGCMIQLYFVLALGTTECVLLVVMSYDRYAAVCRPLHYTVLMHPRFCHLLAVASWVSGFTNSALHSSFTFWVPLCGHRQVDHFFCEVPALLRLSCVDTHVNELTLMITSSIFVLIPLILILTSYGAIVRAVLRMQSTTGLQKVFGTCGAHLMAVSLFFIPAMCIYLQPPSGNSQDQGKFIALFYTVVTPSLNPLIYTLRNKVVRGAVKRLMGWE
Procedure: as §1

OR2W1 = target: T4, OR2W1 (Homo sapiens, UniProt Q9Y3N9); conditions: OR2W1, 500 μM n-hexanal, n = 1
T4 construct: Lucy tag (N); FLAG (N); Rho tag (N); expressed in transfected cells; host or cells: Flp-In T-REx-293 cells stably expressing RTP1S, Gαolf and Ric8-b
T4 sequence (Q9Y3N9 1-320): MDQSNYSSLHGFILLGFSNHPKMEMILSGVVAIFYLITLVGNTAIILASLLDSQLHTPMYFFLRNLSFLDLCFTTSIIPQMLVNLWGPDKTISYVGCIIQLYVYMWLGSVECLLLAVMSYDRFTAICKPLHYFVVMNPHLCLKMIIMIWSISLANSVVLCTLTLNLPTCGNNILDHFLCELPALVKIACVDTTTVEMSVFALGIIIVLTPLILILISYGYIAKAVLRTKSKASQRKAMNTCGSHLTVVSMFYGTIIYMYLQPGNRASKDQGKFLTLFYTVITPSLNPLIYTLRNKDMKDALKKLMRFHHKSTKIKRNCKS
Procedure: as §1

OR4K5 = target: T5, OR4K5 (Homo sapiens, UniProt Q8NGD3); conditions: OR4K5, 500 μM n-hexanal, with the TAR-Tat system (hOR/pHEK), n = 1
T5 construct: Lucy tag (N); FLAG (N); Rho tag (N); expressed in transfected cells; host or cells: Flp-In T-REx-293 cells stably expressing RTP1S, Gαolf and Ric8-b
T5 sequence (Q8NGD3 1-323): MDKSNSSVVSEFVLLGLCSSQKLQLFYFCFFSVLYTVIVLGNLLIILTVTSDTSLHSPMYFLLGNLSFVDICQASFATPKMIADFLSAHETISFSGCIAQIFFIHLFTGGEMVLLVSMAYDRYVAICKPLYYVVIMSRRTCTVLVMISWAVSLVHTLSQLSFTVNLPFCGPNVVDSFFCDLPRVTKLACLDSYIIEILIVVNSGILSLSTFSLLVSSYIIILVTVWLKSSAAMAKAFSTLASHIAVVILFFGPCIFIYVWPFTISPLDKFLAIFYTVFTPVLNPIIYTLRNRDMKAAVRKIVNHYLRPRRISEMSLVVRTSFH
Procedure: as §1

OR8B8 = target: T6, OR8B8 (Homo sapiens, UniProt Q15620); conditions: OR8B8, 500 μM n-hexanal, with the TAR-Tat system (hOR/pHEK), n = 1
T6 construct: Lucy tag (N); FLAG (N); Rho tag (N); expressed in transfected cells; host or cells: Flp-In T-REx-293 cells stably expressing RTP1S, Gαolf and Ric8-b
T6 sequence (Q15620 1-311): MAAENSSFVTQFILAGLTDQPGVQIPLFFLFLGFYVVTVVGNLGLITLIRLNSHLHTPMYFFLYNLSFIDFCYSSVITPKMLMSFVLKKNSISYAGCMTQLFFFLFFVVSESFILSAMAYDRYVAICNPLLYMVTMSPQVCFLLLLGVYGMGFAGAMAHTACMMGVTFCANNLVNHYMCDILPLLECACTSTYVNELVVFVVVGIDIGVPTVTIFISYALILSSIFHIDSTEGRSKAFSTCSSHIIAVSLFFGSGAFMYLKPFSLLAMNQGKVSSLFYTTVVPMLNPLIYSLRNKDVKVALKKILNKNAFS
Procedure: as §1

[1] = with the TAR-Tat system (hOR/pHEK)
[2] = without the TAR-Tat system (control plasmid)

- response value (ΔL) (OR10C1): > 500
- response value (ΔL) (OR2B3): > 500
- response value (ΔL) (OR2J3; [1]): 1580
- response value (ΔL) (OR2J3; [2]): 549
- response value (ΔL) (OR2W1; [1]): 9310
- response value (ΔL) (OR2W1; [2]): 3463
- response value (ΔL) (OR4K5): > 500
- response value (ΔL) (OR8B8): > 500
Compound: CCCCCC=O [n-hexanal]
